{"source": "patent US20060241130A1", "about": "“Anti-inflammatory compositions and uses thereof” (priority 2003, published 2006)", "key": {"[1]": {"system": "ovalbumin sensitized Brown Norway rats", "test": "Asthma treatment model II: blinded histopathological scoring of lung sections (H&E)", "format": "in vivo, rat", "description": "(§1) Asthma treatment model II: Asthma was induced on day 0 in three experimental groups of 10 animals each, by sensitization with ovalbumin (OVA) and aluminum hydroxide, as previously described (Du et al., 1992. Am. Rev. Resp. Dis. 146:1037-1041). Sensitization to the model antigen ovalbumin (OVA) was carried out by subcutaneous injection of 1 mg OVA (Sigma, St. Louis, Mo.) and 200 mg of aluminum hydroxide (AlumInject; Pierce Chemical, Rockford, Ill.) in 0.9 percent (w/w) saline in a total volume of 1 ml, and intraperitoneal injection of 1 ml saline containing 6 billion heat killed Bordetella pertussis cells (Pasteur Marieux, France). A fourth group of 10 animals was not sensitized and was used as the naive control group. The three groups of sensitized rats as well as the group of naive animals were challenged every other day from day 14 until day 21 with repeated 10 minute long inhalations of OVA using an ultrasonic nebulizer inhaler (LS 230 Systam Villeneuve Sur Lot, France). Throughout the experiments, the rats were kept unrestrained in a 20 liters box.\nIn model II, all rats were anaesthetized on day 21 with pentothal and sacrificed by bleeding from the abdominal aorta. Lungs were removed and inflated with 4 percent buffered formaldehyde overlayed with 20 cm water. The lungs were sliced longitudinally and embedded in paraffin. Histologic sections 5 microns thick were cut and stained with hematoxylin and eosin. The morphological changes were evaluated by light microscopy by a pathologist who was blinded to the treatment groups. The intensity of the peribronchiolar and perivascular cellular infiltration was assessed semi-quantitatively on a 0-3 scale as follows: 0=no or practically no inflammatory cells; I=a narrow rim of inflammatory cells surrounding most of the bronchioles/blood vessels, best visualized under high power; 2=a rim of inflammatory cells 3-4 cells thick, surrounding most of the bronchioles/blood vessels; 3=a prominent rim of inflammatory cells, 5 or more cells thick, surrounding most of the bronchioles/blood vessels. Bronchiolar constriction was also assessed on a semi-quantitative scale ranging over 0-3 grades (0=none; 1=mild; 2=moderate; 3=marked). The histologic sections included bronchioles (defined as airways lined by mucosa and lacking cartilage) and distal airways (alveolar ducts and sacs). The features examined included peribronchiolar and perivascular inflammation, morphological evidence of bronchoconstriction (papillary infolding of the bronchiolar mucosa) and granulomatous response in the pulmonary parenchyma."}, "[2]": {"system": "ovalbumin sensitized Brown Norway rats", "test": "Asthma treatment model II: Penh (barometric plethysmography) after repeated OVA challenge", "format": "in vivo, rat", "conditions": "125 ppm in breathing atmosphere day 14 to day 21, measured day 21, 5 minutes after allergen challenge, mean ± standard error", "description": "as §1"}, "[3]": {"system": "asthmatic human patients", "test": "Double-blind cross-over study in asthmatic children, adenosine bronchial provocation test", "format": "in vivo", "conditions": "about 80 ppm nightly for two weeks", "source_text": "Patients: Eleven patients were recruited from children to the pediatric pulmonary clinic, Rambam Medical Center, Haifa. Inclusion criteria: age: 6-11 years; diagnosis of asthma by ATS criteria; ability to perform spirometry consistently; asthma severity classified as “mild persistent” as per the GINA workshop report; no anti-inflammatory medication, including antihistamines, taken for at least 2 weeks prior to enrollment. Exclusion criteria: presence of other chronic conditions; emergency room visit in the past 3 months; respiratory infection in the past month; steroids or other anti-inflammatory medication taken within 2 weeks prior to treatment; and bronchodilators, theophylline preparations or monteleukast taken in the 24 hours prior to spirometry.\nStudy design: A double-blind cross-over study format was used to evaluate the effect of monoterpenes on asthma. The study included four phases, each lasting two weeks. Following enrollment, baseline spirometry was performed and inclusion/exclusion was verified. The patients then filled in a diary card for two weeks. […]\nAdenosine bronchial provocation test (BPT): Bronchial provocation tests were performed by inhalation of nebulized adenosine 5′-monophosphate (adenosine; Sigma chemical company, St. Louis, Mo., USA) solutions in doubling doses. […] The best of three efforts were recorded. […]"}, "[4]": {"test": "Effect of ozone on cromolyn sodium mesophases", "format": "physicochemical", "conditions": "7-12 percent in PBS, ozone (10 percent in oxygen) bubbled for 5 minutes", "description": "(§2) Analysis of the effect of ozone on cromolyn sodium mesophases: Six solutions of cromolyn sodium in PBS (7-12 percent) were placed in narrow (5 mm) NMR tubes and ozone (10 percent in oxygen) was bubbled for 5 minutes through the solutions using a flexible Teflon tube. […] Control experiments were carried out with hydrogen peroxide (30 percent) and sodium hypochlorite."}, "[5]": {"test": "Control: effect of sodium hypochlorite on cromolyn sodium mesophases", "format": "physicochemical", "conditions": "any concentration of cromolyn sodium, 8 hours at room temperature", "description": "as §2"}, "[6]": {"test": "Cromolyn sodium lyotropic mesophase formation (polarizing microscope)", "format": "physicochemical", "conditions": "phosphate buffered saline pH 7.4, 5 to 12 percent (w/w) tested", "description": "Preparation of cromolyn sodium lyotropic mesophases: Solutions of cromolyn sodium (white powder, Vitamed Inc., Israel) were dissolved in phosphate buffered saline [50 mM phosphate, 100 mM NaCl (pH 7.4)] at eight different concentrations between 5 and 12 percent (w/w)."}, "[7]": {"test": "Control: effect of hydrogen peroxide on cromolyn sodium mesophases", "format": "physicochemical", "conditions": "hydrogen peroxide (30 percent), 8 hours at room temperature", "description": "as §2"}, "[8]": {"conditions": "0-3 scale, 125 ppm inhalation day 14-21, OVA sensitized, OVA challenged rats"}, "[9]": {"conditions": "H&E, representative treated rat"}}}
{"smiles": "CC12CCC(CC1)C(C)(C)O2", "note": "[eucalyptol]", "values": [{"measurement": "morphological evidence of bronchoconstriction score", "setting": "[1]; 0-3 grades, 125 ppm inhalation day 14-21, OVA sensitized, OVA challenged rats", "result": "2.3±0.21"}, {"measurement": "peribronchial inflammatory cell infiltration score", "setting": "[1]; [8]", "result": "2.2±0.29"}, {"measurement": "perivascular inflammatory cell infiltration score", "setting": "[1]; [8]", "result": "2.5±0.27"}, {"measurement": "granulomas (granulomatous response) score", "setting": "[1]; 125 ppm inhalation day 14-21, OVA sensitized, OVA challenged rats", "result": "1.8±0.42"}, {"measurement": "morphologic bronchoconstriction in representative lung section (FIG. 12)", "setting": "[1]; [9]", "result": "shows morphologic evidence of bronchoconstriction"}, {"measurement": "peribronchiolar inflammation in representative lung section (FIG. 12)", "setting": "[1]; [9]", "result": "peribronchiolar inflammation and a lymphoid follicle"}, {"measurement": "Penh values", "setting": "[2]", "result": "2.25±0.12"}]}
{"smiles": "C=C(C)[C@H]1CC=C(C)CC1", "note": "[limonene, d-limonene]", "values": [{"measurement": "improvement in severely asthmatic patients as compared to moderately asthmatic patients", "setting": "[3]; adenosine challenge", "result": "approximately one order of magnitude improvement"}, {"measurement": "asthmatics with asthmatic stress significantly and specifically relieved (adenosine challenge)", "setting": "[3]; children 6-11 years, compared to cineole negative control", "result": "6/11"}]}
{"smiles": "O=C(O)c1cc(=O)c2c(OCC(O)COc3cccc4oc(C(=O)O)cc(=O)c34)cccc2o1", "note": "[cromolyn sodium]", "values": [{"measurement": "birefringence after ozone", "setting": "[4]", "result": "Loss of birefringence in all tubes"}, {"measurement": "conversion to oxidized products (1H-NMR)", "setting": "[4]", "result": "complete conversion"}, {"measurement": "birefringence after hypochlorite", "setting": "[5]", "result": "No effect"}, {"measurement": "minimal concentration that exhibited birefringence", "setting": "[6]", "result": 6, "unit": "%"}, {"measurement": "birefringence after hydrogen peroxide, 7 and 8 percent cromolyn sodium", "setting": "[7]", "result": "loss of birefringence was observed"}, {"measurement": "birefringence after hydrogen peroxide, more concentrated cromolyn sodium", "setting": "[7]", "result": "No effect"}]}
